Values of other authors as cited in patent US5173423A, “Process for breeding a glabrous variety of rice crop and a glabrous plant” (Sumitomo Chemical Company Limited, priority 1990, dated 1992).

Tested on: Ginbozu
Conditions: mutation breeding; induced variation: chlorosis; variety Ginbozu

Structure (SMILES)	Frequency of occurrence of variants [%]
Nc1ncc2[nH]cnc2n1 [2-AP, 2-aminopurine]	0.57
O=c1[nH]cc(Br)c(=O)[nH]1 [5-BU, 5-bromouracil]	1.0
